Source: article PMC11241255 (International Journal of Molecular Sciences, 2024)
“And” between values parts separate entries of the source, which are not always exact repeats. Identical values can stand only once. Like-named read-outs stand apart in the source and are kept apart here.

Columns and labels:
[1] = DPPH radical scavenging assay; conditions: positive control at 10 μg/mL
Description: DPPH radical scavenging capacity of the extracts and phytocompounds at 1 mg/mL was measured with slight modification. The absorbance was monitored at 515 nm (Multimode reader, Synergy-H1 BioTek, Agilent, Santa Clara, CA, USA) using ascorbic acid (0.1–10 μg/mL) as a standard. Radical scavenging activity (RSA) was calculated as:% RSA = (Ab − Ae/Ab) × 100 where Ab = absorbance of the blank and Ae = absorbance of the extract.

[2] = Ferric reducing antioxidant potential (FRAP) assay; conditions: 1 mg/mL
Description: FRAP assay was used to assess the […] of the extracts and phytocompounds with slight modification in a previously reported method. For the assay, the extract (1 mg/mL) was incubated with 200 μL of FRAP reagent, and the reduction of ferric tripyridyltriazine was monitored at 593 nm (Multimode reader, Synergy-H1 BioTek, Agilent, USA). Ascorbic acid (2 μg/mL) was used as a positive control. FRAP values of the extracts and phytocompounds were calculated from the standard curve of FeSO4 (15–250 μM) and expressed as μM Fe^2+/g.

[3] = target: T1, Acetylcholinesterase (Electrophorus electricus, Type VI-S) (Electrophorus electricus, UniProt O42275); test: biochemical; conditions: for IC50: read-out: AChE IC50 (converted); for Type of Inhibition of AChE: Lineweaver–Burk plot, 100 and 200 μg/mL; for Vmax of AChE in presence of inhibitor: no inhibitor 2.975
T1 construct: purchased Sigma-Aldrich
T1 sequence (O42275 24-633): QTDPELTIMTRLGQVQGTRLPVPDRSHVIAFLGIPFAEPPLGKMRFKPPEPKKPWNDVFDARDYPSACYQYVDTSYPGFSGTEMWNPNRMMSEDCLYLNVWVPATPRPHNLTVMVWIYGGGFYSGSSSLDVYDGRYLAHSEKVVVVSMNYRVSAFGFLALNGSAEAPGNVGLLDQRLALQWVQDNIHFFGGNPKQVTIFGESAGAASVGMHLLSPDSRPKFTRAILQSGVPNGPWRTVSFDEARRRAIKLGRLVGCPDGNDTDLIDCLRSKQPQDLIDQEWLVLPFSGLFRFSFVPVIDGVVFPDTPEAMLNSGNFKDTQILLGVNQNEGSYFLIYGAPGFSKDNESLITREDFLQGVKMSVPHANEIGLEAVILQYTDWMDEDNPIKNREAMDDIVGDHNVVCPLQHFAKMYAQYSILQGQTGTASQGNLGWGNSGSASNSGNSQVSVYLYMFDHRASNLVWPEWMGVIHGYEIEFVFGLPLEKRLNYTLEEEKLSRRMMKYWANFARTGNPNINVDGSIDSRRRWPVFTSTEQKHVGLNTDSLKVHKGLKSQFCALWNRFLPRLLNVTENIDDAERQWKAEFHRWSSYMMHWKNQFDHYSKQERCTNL
Description: The AChE activity was examined by slight modifications [23] in Ellman’s method [76]. The extracts and phytocompounds were incubated for 15 min with AChE and 10 mM ATCC at 37 °C. The reaction was stopped by DTNB (15 mM), and the absorbance was measured at 412 nm (Multi-mode plate reader, Synergy-H1 BioTek, Agilent, USA). […] The percent inhibition was calculated as:Percent Inhibition (I%) = [(Ao − Ac) − (Bi − Bc)]/(Ao − Ac) × 100 where Ao is the absorbance without inhibitor; Ac is the negative control without inhibitor; Bi is the absorbance with inhibitor; and Bc is the negative control with inhibitor. The IC50 values were calculated using GraphPad Prism 10. Lineweaver–Burk plot was used to prepare the inhibition curves (with and without extract/phytocompound) using GraphPad Prism 10. The kinetic parameters were calculated from a non-linear fit (Michaelis–Menten equation) in GraphPad Prism 10.
Statistical analysis was established by a one-way ANOVA followed by Dunnett’s post hoc test. Data are registered as the mean ± SEM of three sets of experiments. […] The IC50 values were determined using non-linear regression. The Vmax and Km were calculated from a Michaelis–Menten plot drawn using a non-linear plot (GraphPad Prism 10). Lineweaver–Burk plots were drawn using linear regression analysis (GraphPad Prism 10). The Ki values were calculated from the formula IC50 = Ki (1 + [S]/Km).

Aβ1–42 [4] = target: T2, Aβ1–42 (Homo sapiens, UniProt P05067); test: Anti-Aβ1–42 oligomerization, multimeric detection system (MDS); format: biochemical; conditions: for Aβ oligomerization reduction (relative amount of Aβ oligomers): vs negative control (Buffer + Aβ)
T2 construct: Aβ1–42 for MDS (GenicBio Inc., Shanghai, China); purchased GenicBio Inc
T2 sequence (P05067 672-713): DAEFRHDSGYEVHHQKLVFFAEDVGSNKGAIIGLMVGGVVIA
Description: The anti-Aβ1–42 oligomerization and fibrilization activity of the extracts/bioactives were measured by Multiple Detection System (MDS) and ThT assay, respectively. Briefly, the extracts and phytocompounds were incubated with Aβ1–42 at RT for different time points (0 h, 2 h, and 4 h). The samples were incubated on an anti-β-amyloid pre-coated plate for 1 h at RT. An HRP-conjugated W0–2 monoclonal antibody was added, and the plate was kept at RT for 30 min. Later, TMB was added, and the plate was incubated for 15 min at RT. The absorbance was read at 450 nm using a microplate reader (Victor3, PerkinElmer, Shelton, CT, USA)

Aβ1–42 [5] = target: T2, Aβ1–42; test: Anti-Aβ1–42 fibrilization, ThT assay; format: biochemical; conditions: for Aβ fibrilization inhibition (ThT): samples 500 μg/mL, 37 °C 24 h
Description: The anti-Aβ1–42 fibrilization activity of the extracts/bioactives was monitored using a ThT assay. The samples were incubated in the presence/absence of Aβ1–42 at 37 °C for 24 h. The samples were incubated with 100 μM ThT at 37 °C for 15 min. The fluorescence was monitored at Ex 450 nm/Ems 490 nm (Synergy-H1 BioTek, Agilent, Santa Clara, CA, USA). For the control, phenol red (50 μM) was used. The Aβ1–42 aggregation inhibition was calculated as follows:Percent Inhibition (%) = [(1 − Fi/Fc) × 100] where Fi and Fc are the fluorescence intensity with and without the inhibitors, respectively.

[6] = tested on: SH-SY5Y neuroblastoma cell line; test: Cell viability / cytotoxicity assay (WST-8); format: cell-based, Human; conditions: 24 h treatment; 1, 10, 30 µg/mL
Description: (§1) Human neuroblastoma SH-SY5Y cells (ATCC CRL-2266, Manassas, VA, USA) were maintained in Dulbecco’s modified Eagle’s medium (DMEM, Gibco) supplemented with 10% fetal bovine serum (FBS), 1% kanamycin, and 1% penicillin (Thermo Fisher Scientific, Waltham, MA, USA) at 37 °C with 5% CO2, and a 95% humidified atmosphere in the incubator. The experiments were executed at 80–90% cell confluency.
The cells were seeded (1 × 10^4 cells/well) in 96-well sterile plates and pre-treated with various extract concentrations (1, 10, 30 µg/mL) for 24 h. The extracts and phytocompounds were removed and incubated for 2 h with 10% WST-8 reagent (Roche, Grenzach-Wyhlen, Germany) as described previously. The absorbance was determined at 450 nm in a multi-plate reader (Synergy-H1 BioTek, Agilent, USA). The percent cytotoxicity was calculated as:Cytotoxicity % = (Ac − At)/(Ac) × 100 where Ac = absorbance of the control cells, At = absorbance of the treated cells.
The plot of percent cytotoxicity versus sample concentration was used to calculate the extract concentration that killed 50% of the cells (IC50).

[7] = tested on: H2O2-induced neuroblastoma SH-SY5Y cells; test: Neuroprotection assay against H2O2-induced oxidative stress (WST-8); format: cell-based, Human
Description: as §1
The neuroprotective effect of extracts and phytocompounds on H2O2-induced oxidative stress in SH-SY5Y by a previously described method. The cells (1 × 10^4 cells/well) were seeded in a 96-well sterile plate. After stabilization, the cells were pre-treated with the extracts and phytocompounds for 24 h. The extracts and phytocompounds were removed and treated with H2O2 (100 μM) for 6 h. A solvent control, H2O2 alone, and extract alone treatments were also included. After incubation, the % cell viability was measured using WST-8 reagent in triplicate experiments.

[8] = tested on: H2O2-induced ROS production in SH-SY5Y cells; test: Intracellular ROS measurement (H2DCFDA); format: cell-based, Human; conditions: 12 h pre-treatment, H2O2 100 µM 2 h, H2O2 alone 156.96 ± 5.07%
Description: as §1
The cells (1 × 10^4 cells/well) were seeded in a 96-well sterile plate, after which they were pre-treated with the extract for 12 h. […] The fluorescence intensity (Ex 495 nm, Ems 520 nm) was measured by a microplate reader (Synergy-H1 BioTek, Agilent, USA). The ROS was calculated as a percentage of the untreated control cells (100%) in triplicate measurements.

SH-SY5Y cells = test: Mitochondrial membrane potential (ΔΨm) assay (TMRE); format: cell-based, Human; conditions: 12 h pre-treatment, 200 μM H2O2 2 h
Description: as §1
The mitochondrial membrane potential was measured using the tetramethylrhodamine, methyl ester (TMRE) staining method. The cells (1 × 10^4 cells/well) were seeded in a 96-well sterile plate; after which, they were pre-treated with the extract for 12 h. The extracts and phytocompounds were removed, followed by a 2 h treatment with H2O2 (200 μM). A 1 μM amount of TMRE was added to the cells and incubated for 1 h at 37 °C. The fluorescence was assessed (Ex 549 nm, Ems 575 nm) using a microplate reader (Synergy-H1 BioTek, Agilent, USA). The ΔΨm was calculated as a percentage of the untreated control cells (100%) in triplicate measurements.

SH-SY5Y cell lysate = test: Glutathione (GSH, GSSG) in cell lysate; format: cell-based, Human; conditions: 10 μg/mL; 24 h pre-treatment, 6 h H2O2 100 μM
Description: as §1
(§2) The cells (5 × 10^4 cells/well) were seeded in a 6-well sterile plate and incubated for 18–24 h. After stabilization, cells were pre-treated with the extracts and phytocompounds for 24 h before 6 h incubation with H2O2 (100 μM). The culture media was removed, and the cells were washed with cold PBS (1X). The cells were placed on ice and incubated with pre-chilled RIPA buffer for 10 min. Transfer the lysate in microfuge tubes and centrifuge (Labogene 1730R, BMS, Paju-si, Republic of Korea) for 10 min at 20,000× g, 4 °C. The supernatant was collected and stored at −80 °C.
The concentrations of GSH (reduced) and GSSG (oxidized) in the lysate were measured fluorometrically using a previously described and the fluorescence was recorded at 350/420 (Ex/Ems) in a microplate reader (Synergy-H1 BioTek, Agilent, Santa Clara, CA, USA).

SH-SY5Y cells lysate = test: Malondialdehyde (MDA) in cell lysate (TBA:TCA); format: cell-based, Human; conditions: 24 h pre-treatment, 6 h H2O2 100 μM
Description: as §1, §2
MDA levels were measured using TBA: TCA reagent as described previously. In the reaction, MDA reacts with two molecules of thiobarbituric acid (TBA) to give a pink pigment that absorbs at 532 nm. The standard curve of MDA (1–100 μM) was used to calculate lipid peroxidation in the lysate.

AChE = conditions: cited from earlier work
[9] = cited from earlier work
[10] = ABTS radical scavenging assay; conditions: positive control at 10 μg/mL
[11] = mean of three experiments ± SEM

Compound: O=C1O[C@H]([C@@H](O)CO)C(O)=C1O [Ascorbic acid, ascorbic acid]
- DPPH percent radical scavenging activity [1]: 85.43 ± 1.02%

Compound: C=C(C)[C@H]1CC[C@H](C)C(=O)C1 [DHC, cyclohexanone,2-methyl-5-(1-methylethenyl)-]
- FRAP value [2]: 45.22 ± 0.72 µM Fe^2+/g
- IC50 [3, 11]: > 7870 µM and 7870 µM
- IC50 ([3]; stated as bound): > 6570 µM
- Aβ oligomerization reduction (relative amount of Aβ oligomers) (Aβ1–42 [4]; 2 h incubation): non-significant
- percent Aβ oligomerization inhibition (Aβ1–42 [4]; MDS, Figure 3B, mean ± SEM n = 3): 26.62 ± 8.62%
- Aβ fibrilization inhibition (ThT) (Aβ1–42 [5]): 26.6% and 33.44 ± 3.43%
- Cytotoxicity (cell viability) in SH-SY5Y [6]: No significant difference
- cell viability change vs H2O2 control ([7]; all concentrations (0.1–30 µg/mL)): non-significantly increased
- ROS level (% of untreated cells) ([8]; 10 µg/mL): 107.37 ± 8.26%
- ROS level (% of untreated cells) ([8]; 30 µg/mL): 96.73 ± 9.11%
- MMP (% ΔΨm vs untreated cells) (SH-SY5Y cells; 0.1 µg/mL): 74.94 ± 1.20%
- MMP (% ΔΨm vs untreated cells) (SH-SY5Y cells; 1 µg/mL): 79.26 ± 0.56%
- MMP (% ΔΨm vs untreated cells) (SH-SY5Y cells; 10 µg/mL): 85.21 ± 0.19%
- MMP (% ΔΨm vs untreated cells) (SH-SY5Y cells; 30 µg/mL): 86.91 ± 5.47%
- GSSG levels (SH-SY5Y cell lysate): substantial reduction
- MDA level (SH-SY5Y cells lysate; 0.1 µg/mL): 1.79 µM
- MDA level (SH-SY5Y cells lysate; 1 µg/mL): 1.60 µM
- MDA level (SH-SY5Y cells lysate; 10 μg/mL): 1.45 µM
- AChE inhibition (AChE; at 1 mg/mL): 31.1%

Compound: C=CCc1cc(OC)c2c(c1OC)OCO2 [apiole]
- FRAP value [2]: 42.41 ± 3.54 µM Fe^2+/g
- Ki ([3]; Ki): 1720 µM
- Ki ([3]; Ki (inhibitor constant), AChE): 1720 µM and 1710 µM
- Type of Inhibition of AChE [3]: competitive inhibition
- Type of Inhibition of AChE ([3]; listed as Apiole): Competitive
- Vmax of AChE in presence of inhibitor ([3]; inhibitor 100 μg/mL): 3.551 µmol/min/mg
- Vmax of AChE in presence of inhibitor ([3]; inhibitor 200 μg/mL): 3.712 µmol/min/mg
- IC50 [3, 11]: 1750 µM
- IC50 ([3]; molar equivalent of the μg/mL value): 1740 µM
- Aβ oligomerization reduction (relative amount of Aβ oligomers) (Aβ1–42 [4]; 2 h incubation): statistically significant
- Aβ oligomerization reduction (relative amount of Aβ oligomers) (Aβ1–42 [4]; 4 h incubation): statistically significant
- Aβ fibrilization inhibition (ThT) (Aβ1–42 [5]): 41.85 ± 1.73%
- Cytotoxicity (cell viability) in SH-SY5Y [6]: No significant difference
- % cell viability, H2O2-induced SH-SY5Y ([7]; 1–30 µg/mL, 12 h pre-treatment, 1 h H2O2 100 µM): ~ 75%
- ROS level (% of untreated cells) ([8]; 10 µg/mL): 113.63 ± 6.25%
- ROS level (% of untreated cells) ([8]; 30 µg/mL): 102.92 ± 9.11%
- MMP (% ΔΨm vs untreated cells) (SH-SY5Y cells; 0.1 µg/mL): 71.53 ± 0.37%
- MMP (% ΔΨm vs untreated cells) (SH-SY5Y cells; 1–30 µg/mL): 75 to 77%
- MDA level (SH-SY5Y cells lysate; 0.1 µg/mL): 1.94 µM
- MDA level (SH-SY5Y cells lysate; 1 and 10 µg/mL): ~ 1.38 µM
- BBB permeability [9]: lacks significant BBB permeability

Compound: COc1ccc2c3c1O[C@H]1C[C@@H](O)C=C[C@@]31CCN(C)C2 [galantamine, reference compound]
- AChE IC50 (AChE; previously reported value, no reference given): 4.31 µg/mL

Compound: O=S1(=O)OC(c2ccc(O)cc2)(c2ccc(O)cc2)c2ccccc21 [phenol red, reference compound]
- inhibition at 50 µM (Aβ1–42 [5]; positive control 50 μM, read-out: Aβ fibrilization inhibition (ThT)): 60.3 ± 4.29%

Compound: O=c1c(O)c(-c2ccc(O)c(O)c2)oc2cc(O)cc(O)c12 [quercetin]
- ABTS radical scavenging activity [10]: 97.55 ± 0.05%
